Experiment [1] concerns rats with EAE (MOG-induced Experimental Autoimmune Encephalitis). The experiment can be described thus: EAE model, motor score after single intrathecal bolus.
Protocol: The EAE model described above was used. Motor score was assessed three days before and daily post MOG administration (8.25 ug intradermally). At the onset of motor symptoms (partial tail paralysis, motor score 1) rats were randomly injected with an A2A agonist, CGS21680 (3-[4-[2-[[6-amino-9-[(2R,3R,4S,5S)-5-(ethylcarbamoyl)-3,4-dihydroxy-oxolan-2-yl]purin-2-yl]amino]ethyl]phenyl]propanoic acid) (10 μM) or vehicle.
The subject of the next experiment is rats with EAE. The experiment is described as follows: EAE model, survival curve (time to motor score 6 or higher). Format: in vivo, Male Dark Agouti rats. The source says: In a separate group of rats from Example 1, MOG was intradermally administered as described above. […] The time at which motor score reached 6 or higher after the onset of motor symptoms is represented on the survival curve shown in FIG. 2. […] A single intrathecal injection of an A2A agonist, CGS21680, improved survival percentage in rats with EAE.

Another experiment relates to rat spines (EAE). The experiment can be described thus: FLAIR and T2-weighted MRI on rat spines in EAE. The settings on record: ATL313 treated animals with preserved motor scores. The experiment is classed as in vivo. On the procedure:
ATL313 (4-{3-[6-amino-9-(5-cyclopropylcarbamoyl-3,4-dihydroxy-tetrahydro-furan-2-yl)-9H-purin-2-yl]-prop-2-ynyl}-piperidine-1-carboxylic acid methyl ester) (single bolus 1 μM-not shown and 10 μM) was used in the EAE model as described above (8-9 rats/group). The change in motor symptoms and the survival curve for ATL313 (10 μM) are shown in FIGS. 4A and 4B, respectively. 1 μM ATL313 produced a reduction in motor score lasting approximately 10 days.

A further experiment relates to neuropathic pain. To be noted: duration of effect ~35 days; cited from earlier work.
The subject of experiment [2] is cd68 (classically activated macrophage marker). The experiment is described as follows: Immunohistochemistry of the dorsal spinal cord, cd68. The settings on record: motor score 6 or higher or 24 days post onset, vs vehicle, P<0.05 (FIG. 3). The experiment is classed as in vivo, rats.
In experiment [3] the test system is OX-42 (microglial activation marker). The experiment is described as follows: Immunohistochemistry of the dorsal spinal cord, OX-42. The experiment is classed as in vivo, rats. The settings on record: motor score 6 or higher or 24 days post onset, vs vehicle, P<0.05 (FIG. 3).

Entries after “also recorded” stand apart in the source; their conditions may differ.

`COC(=O)N1CCC(CC#Cc2nc(N)c3ncn([C@@H]4O[C@H](C(=O)NC5CC5)C(O)C4O)c3n2)CC1` (stereo in doubt) [ATL313, 4-{3-[6-amino-9-(5-cyclopropylcarbamoyl-3,4-dihydroxy-tetrahydro-furan-2-yl)-9H-purin-2-yl]-prop-2-ynyl}-piperidine-1-carboxylic acid methyl ester]: the “duration of attenuation of motor effects of EAE, at worst” value in experiment [1] (5 ng intrathecal single bolus) is on record as about 35 days. Moreover, the “progression of motor impairment/dysfunction induced by EAE” value in experiment [1] (5 ng intrathecal single bolus at initial onset of motor impairment (FIG. 5A)) is reported as “good attenuation of progression of motor impairment/dysfunction”. Moreover, the “number of animals where motor deterioration is arrested with no further progression” value in experiment [1] (5 ng intrathecal, first group (FIG. 5B)) was 6. Besides, the “number of rats whose motor symptoms continued on the usual course at around day 35” value in experiment [1] (5 ng intrathecal, second group (FIG. 5C)) is given as 3. In experiment [1] (1 μM single intrathecal bolus), the “duration of reduction in motor score” value is reported as “approximately 10 days”. For the same molecule, in experiment [1] (10 μM single intrathecal injection (FIG. 4A)), the “duration of arrest of progression of motor score symptoms” value was over 80 days. In addition, the “duration of suppression of paralysis” value in experiment [1] (FIG. 6 legend, other sub-group) was about 4 week. Further, the paralysis result in experiment [1] (FIG. 6 legend, surviving ATL313 rats) is listed as “arrests paralysis in every surviving ATL313 rat”. Also, in the experiment on rats with EAE (10 μM intrathecal, at 70 days, with stabilized motor scores (FIG. 4B)), the rats still alive was 6/9. For the same molecule, the survival rate result in the experiment on rats with EAE (10 μM single intrathecal injection, MOG+ATL313 vs MOG+vehicle (FIG. 4B)) is “increased survival rate”. In addition, the survival result in the experiment with rats with EAE (FIG. 6 legend) was “markedly enhances survival”. In addition, the “MRI abnormalities (hyperintensity) of spine” value with rat spines (EAE) is on record as “only minimal abnormalities”. Besides, in the experiment on neuropathic pain, the neuropathic pain entry was “attenuates neuropathic pain”.
For the molecule `CCNC(=O)[C@H]1O[C@@H](n2cnc3c(N)nc(NCCc4ccc(CCC(=O)O)cc4)nc32)[C@H](O)[C@@H]1O` [CGS21680, 3-[4-[2-[[6-amino-9-[(2R,3R,4S,5S)-5-(ethylcarbamoyl)-3,4-dihydroxy-oxolan-2-yl]purin-2-yl]amino]ethyl]phenyl]propanoic acid, reference compound], the “severity of motor symptoms (motor score)” value in experiment [1] (10 μM, single intrathecal injection at onset of motor symptoms, vs vehicle (FIG. 1)) is “reduced the severity of motor symptoms; also recorded: attenuated motor symptoms”. Also, the percentage of survival result in the experiment on rats with EAE (10 μM intrathecal at onset of motor symptoms, day 25, vs vehicle, P<0.05 (FIG. 2)) is reported as “significant difference in percentage of survival”. The cd68 staining result in experiment [2] is given as “significant reduction”. Also, the OX-42 staining entry in experiment [3] is reported as “significant reduction”.

These data come from US20130123208A1, “METHOD OF TREATING MULTIPLE SCLEROSIS WITH ADENOSINE RECEPTOR AGONISTS” (THE REGENTS OF THE UNIVERSITY OF COLORADO, a body …, priority 2010, published 2013).
